Experimental data: article PMC12846068, “Insights into Transport Function of the Murine Organic Anion-Transporting Polypeptide OATP1B2 by Comparison with Its Rat and Human Orthologues” (Toxics, 2025)
Where two headings read alike, the source gives them in different places.

Experiments:
[1] = target: T1, mOATP1B2 (Mus musculus, UniProt Q9JJL3); assay: cis-inhibition of mOATP1B2-mediated E1S or TCA uptake in HEK293 cells; format: cell-based
T1 construct: The full-length mOATP1B2 and rOATP1B2 consist of 689 and 678 amino acids
T1 sequence (Q9JJL3 1-689): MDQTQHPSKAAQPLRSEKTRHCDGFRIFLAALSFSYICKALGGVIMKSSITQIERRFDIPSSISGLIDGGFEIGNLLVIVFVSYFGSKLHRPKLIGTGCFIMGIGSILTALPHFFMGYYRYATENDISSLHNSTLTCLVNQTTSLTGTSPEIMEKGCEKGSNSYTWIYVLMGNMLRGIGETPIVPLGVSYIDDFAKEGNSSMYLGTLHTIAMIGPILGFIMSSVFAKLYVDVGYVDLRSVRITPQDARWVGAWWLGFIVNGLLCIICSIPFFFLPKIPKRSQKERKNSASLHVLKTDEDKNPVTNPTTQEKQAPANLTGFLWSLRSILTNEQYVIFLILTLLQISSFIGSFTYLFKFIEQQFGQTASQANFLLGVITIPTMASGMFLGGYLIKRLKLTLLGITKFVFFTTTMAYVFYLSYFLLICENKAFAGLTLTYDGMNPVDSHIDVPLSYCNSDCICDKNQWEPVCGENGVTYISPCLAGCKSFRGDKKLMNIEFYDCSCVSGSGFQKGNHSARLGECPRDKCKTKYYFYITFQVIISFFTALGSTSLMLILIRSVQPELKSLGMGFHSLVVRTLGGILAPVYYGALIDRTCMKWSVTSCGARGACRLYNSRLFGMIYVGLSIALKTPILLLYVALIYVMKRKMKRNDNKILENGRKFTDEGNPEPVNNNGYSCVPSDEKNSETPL
Procedure: Inhibition experiments with mOATP1B2 and rOATP2B1 were carried out in triplicate as cis-inhibition. […] Inhibitory effects were calculated as a percentage of the net-uptake rates. […] The means ± average deviation (AD, for N = 2) were calculated from two experiments on two different days. The significance as a p-value was calculated using Student's t-test in Microsoft Excel.

[2] = target: T2, rOATP1B2 (Rattus norvegicus, UniProt Q9QZX8); assay: cis-inhibition of rOATP1B2-mediated E1S or TCA uptake in HEK293 cells; format: cell-based
T2 construct: The full-length mOATP1B2 and rOATP1B2 consist of 689 and 678 amino acids
T2 sequence (Q9QZX8 1-687): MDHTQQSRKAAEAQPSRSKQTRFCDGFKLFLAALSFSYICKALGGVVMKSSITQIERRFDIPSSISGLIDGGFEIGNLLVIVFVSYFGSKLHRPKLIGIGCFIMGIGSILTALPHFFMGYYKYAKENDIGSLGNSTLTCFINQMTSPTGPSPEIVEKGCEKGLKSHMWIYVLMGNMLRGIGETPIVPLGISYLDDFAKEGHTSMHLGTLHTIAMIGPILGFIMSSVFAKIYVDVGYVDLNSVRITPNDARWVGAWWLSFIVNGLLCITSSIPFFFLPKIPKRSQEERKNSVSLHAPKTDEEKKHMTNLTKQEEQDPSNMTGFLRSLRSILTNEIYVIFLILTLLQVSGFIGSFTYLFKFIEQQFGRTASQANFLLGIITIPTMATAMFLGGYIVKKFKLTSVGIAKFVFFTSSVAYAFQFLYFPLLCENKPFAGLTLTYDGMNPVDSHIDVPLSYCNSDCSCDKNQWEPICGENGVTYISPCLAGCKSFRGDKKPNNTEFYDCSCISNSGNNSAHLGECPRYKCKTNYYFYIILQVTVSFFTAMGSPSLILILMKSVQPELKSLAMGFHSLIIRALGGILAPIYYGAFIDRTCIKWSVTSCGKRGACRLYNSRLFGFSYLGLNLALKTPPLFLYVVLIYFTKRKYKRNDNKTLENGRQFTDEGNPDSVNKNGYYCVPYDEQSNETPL

[3] = target: T3, hOATP1B1 (Homo sapiens, UniProt Q9Y6L6); assay: cis-inhibition of hOATP1B1-mediated E1S uptake in HEK293 cells; format: cell-based; parameters: expressed in transfected cells; host or cells: HEK-293, stably transfected; details: 10 µM drug, 0.01 µM [3H]-E1S, 1 min
T3 sequence (Q9Y6L6 1-691): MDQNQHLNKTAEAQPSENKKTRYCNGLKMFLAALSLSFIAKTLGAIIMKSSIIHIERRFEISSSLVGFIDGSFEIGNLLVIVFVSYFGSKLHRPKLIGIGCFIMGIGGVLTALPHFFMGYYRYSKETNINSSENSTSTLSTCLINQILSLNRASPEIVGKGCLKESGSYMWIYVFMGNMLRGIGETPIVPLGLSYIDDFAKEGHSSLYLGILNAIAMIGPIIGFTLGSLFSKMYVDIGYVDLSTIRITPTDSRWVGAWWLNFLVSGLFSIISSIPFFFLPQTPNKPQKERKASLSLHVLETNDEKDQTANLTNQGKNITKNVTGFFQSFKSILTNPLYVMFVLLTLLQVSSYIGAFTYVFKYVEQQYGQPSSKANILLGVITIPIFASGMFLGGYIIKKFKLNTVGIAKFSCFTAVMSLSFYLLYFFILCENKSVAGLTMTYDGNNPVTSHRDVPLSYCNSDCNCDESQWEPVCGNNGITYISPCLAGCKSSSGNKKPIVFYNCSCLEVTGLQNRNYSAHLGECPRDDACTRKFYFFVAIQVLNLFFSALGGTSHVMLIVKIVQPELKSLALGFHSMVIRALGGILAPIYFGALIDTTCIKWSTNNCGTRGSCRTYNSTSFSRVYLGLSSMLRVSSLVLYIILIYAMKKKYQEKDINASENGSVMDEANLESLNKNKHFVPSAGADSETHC
Procedure: (§1) Inhibitory effects were calculated as a percentage of the net-uptake rates.
(§2) The means ± average deviation (AD, for N = 2) were calculated from two experiments on two different days. The significance as a p-value was calculated using Student’s t-test in Microsoft Excel.

[4] = target: T4, hOATP1B3 (Homo sapiens, UniProt Q9NPD5); assay: cis-inhibition of hOATP1B3-mediated TCA uptake in HEK293 cells; format: cell-based; parameters: expressed in transfected cells; host or cells: HEK-293, stably transfected; details: 10 µM drug, 1 µM TCA, 10 min
T4 sequence (Q9NPD5 1-702): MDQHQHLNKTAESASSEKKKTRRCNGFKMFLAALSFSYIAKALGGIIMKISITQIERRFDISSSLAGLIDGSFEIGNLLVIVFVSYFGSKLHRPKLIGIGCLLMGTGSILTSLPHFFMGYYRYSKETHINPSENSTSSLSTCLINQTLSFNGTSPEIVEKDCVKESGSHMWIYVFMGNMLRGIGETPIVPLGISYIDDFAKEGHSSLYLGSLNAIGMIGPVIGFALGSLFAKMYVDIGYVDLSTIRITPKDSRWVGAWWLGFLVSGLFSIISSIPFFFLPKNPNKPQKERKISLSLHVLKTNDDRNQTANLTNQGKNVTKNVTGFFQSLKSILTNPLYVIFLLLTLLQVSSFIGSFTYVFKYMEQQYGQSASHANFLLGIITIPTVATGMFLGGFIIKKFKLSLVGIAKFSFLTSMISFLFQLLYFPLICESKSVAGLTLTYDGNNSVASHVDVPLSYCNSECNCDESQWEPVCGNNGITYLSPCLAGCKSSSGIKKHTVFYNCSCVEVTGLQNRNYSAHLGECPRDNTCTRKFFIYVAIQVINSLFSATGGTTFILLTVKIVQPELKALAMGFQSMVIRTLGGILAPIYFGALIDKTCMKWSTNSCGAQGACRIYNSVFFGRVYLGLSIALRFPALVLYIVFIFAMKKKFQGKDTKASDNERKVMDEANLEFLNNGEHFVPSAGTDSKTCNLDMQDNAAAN
Procedure: as §1, §2

[5] = substrate: C[C@H](CCC(=O)NCCS(=O)(=O)O)[C@H]1CC[C@H]2[C@@H]3[C@H](O)C[C@@H]4C[C@H](O)CC[C@]4(C)[C@H]3C[C@H](O)[C@]12C; assay: cells, lysate or membranes; details: 1 min, 37 °C, increasing unlabeled substrate with 10 nM 3H-substrate, pH 7.4
[6] = 10 µM drug, substrates E1S and TCA not separated
[7] = HEK293, 10 µM drug, 1 µM [3H]-E1S, 1 min, read-out: Inhibitory effect on mOATP1B2-mediated E1S uptake
[8] = HEK293, read-out: Inhibitory effect on mOATP1B2-mediated TCA uptake, 10 µM drug, 1 µM [3H]-TCA, 1 min
[9] = HEK293, 10 µM drug, 1 µM [3H]-E1S, 1 min, read-out: Inhibitory effect on rOATP1B2-mediated E1S uptake
[10] = HEK293, read-out: Inhibitory effect on rOATP1B2-mediated TCA uptake, 10 µM drug, 1 µM [3H]-TCA, 1 min

With CCCc1nc(C(C)(C)O)c(C(=O)O)n1Cc1ccc(-c2ccccc2-c2nnn[nH]2)cc1 [Olmesartan, olmesartan] the “Inhibitory effect on mOATP1B2-mediated substrate uptake (summary over E1S and TCA)” value [1, 6] was “below 50%”, the inhibition at 10 µM [1, 7] was 18% and the inhibition at 10 µM [1, 8] was 25%. The “Inhibitory effect on rOATP1B2-mediated substrate uptake (summary over E1S and TCA)” value [2, 6] was “below 50%”, the inhibition at 10 µM [2, 9] was 27% and the inhibition at 10 µM [2, 10] was 32%. The “Inhibitory effect on hOATP1B1-mediated E1S uptake” value [3] was 18%, the “Inhibitory effect on hOATP1B1-mediated E1S uptake” value ([3]; listed as olmesartan) was “less than 50%” and the “Inhibitory effect on hOATP1B3-mediated TCA uptake” value [4] was 29%. For the same molecule, the “Inhibitory effect on hOATP1B3-mediated TCA uptake” value ([4]; listed as olmesartan) was “less than 50%”.

Work on CC(C)c1nc(CN(C)C(=O)N[C@H](C(=O)N[C@@H](Cc2ccccc2)C[C@H](O)[C@H](Cc2ccccc2)NC(=O)OCc2cncs2)C(C)C)cs1 [Ritonavir, ritonavir] yielded an inhibition at 10 µM [1, 7] of 74%, an inhibition at 10 µM [1, 8] of 71% and an inhibition at 10 µM [2, 9] of 84%. The inhibition at 10 µM [2, 10] was 78% and the inhibition at 10 µM ([2]; HEK293, read-out: Inhibitory effect on rOATP1B2-mediated substrate uptake (summary over E1S and TCA), 10 µM drug, substrates E1S and TCA not separated) was greater than 70%.

B1: rOATP1B2 (Rattus norvegicus) (protein)
chain: T2 sequence (Q9QZX8 1-687)
Molecule B1 has a Km ([5]; other: rOATP1B2-HEK293, net uptake) of 16 ± 3 µM.

B2: mOATP1B2 (Mus musculus) (protein)
chain: T1 sequence (Q9JJL3 1-689)
B2 gave a Km ([5]; other: mOATP1B2-HEK293, net uptake) of 73 ± 11 µM.
